From PubChem BioAssay (NCI)
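48-hour exposure; five concentrations; linearly interpolated endpoints. Abbreviation: GI50, concentration required for 50% inhibition of growth. TGI is the concentration that stops growth completely.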

Assays:
Assay in all cases: DTP human tumour cell line panel, 48 h; in the data active means GI50 below about 0.43 µM; inactive means the rest
A549 NSCLC = tested on: A549 NSCLC
ACHN renal = tested on: ACHN renal
BT-549 breast = tested on: BT-549 breast
CAKI-1 renal = tested on: CAKI-1 renal
CCRF-CEM leukemia = tested on: CCRF-CEM leukemia
COLO 205 colon = tested on: COLO 205 colon
DU-145 prostate = tested on: DU-145 prostate
EKVX NSCLC = tested on: EKVX NSCLC
HCC-2998 colon = tested on: HCC-2998 colon
HCT-116 colon = tested on: HCT-116 colon
HCT-15 colon = tested on: HCT-15 colon
HL-60(TB) leukemia = tested on: HL-60(TB) leukemia
HOP-62 NSCLC = tested on: HOP-62 NSCLC
HOP-92 NSCLC = tested on: HOP-92 NSCLC
HS 578T breast = tested on: HS 578T breast
HT29 colon = tested on: HT29 colon
IGROV1 ovarian = tested on: IGROV1 ovarian
K-562 leukemia = tested on: K-562 leukemia
KM12 colon = tested on: KM12 colon
LOX IMVI melanoma = tested on: LOX IMVI melanoma
M14 melanoma = tested on: M14 melanoma
MALME-3M melanoma = tested on: MALME-3M melanoma
MCF7 breast = tested on: MCF7 breast
MDA-MB-231 breast = tested on: MDA-MB-231 breast
MDA-MB-435 = tested on: MDA-MB-435
MOLT-4 leukemia = tested on: MOLT-4 leukemia
NCI-H226 lung = tested on: NCI-H226 lung
NCI-H23 lung = tested on: NCI-H23 lung
NCI-H460 lung = tested on: NCI-H460 lung
NCI-H522 lung = tested on: NCI-H522 lung
NCI/ADR-RES ovarian = tested on: NCI/ADR-RES ovarian
OVCAR-3 ovarian = tested on: OVCAR-3 ovarian
OVCAR-4 ovarian = tested on: OVCAR-4 ovarian
OVCAR-5 ovarian = tested on: OVCAR-5 ovarian
OVCAR-8 ovarian = tested on: OVCAR-8 ovarian
PC-3 prostate = tested on: PC-3 prostate
RPMI-8226 leukemia = tested on: RPMI-8226 leukemia
RXF 393 renal = tested on: RXF 393 renal
SF-268 CNS = tested on: SF-268 CNS
SF-295 CNS = tested on: SF-295 CNS
SF-539 CNS = tested on: SF-539 CNS
SK-MEL-2 melanoma = tested on: SK-MEL-2 melanoma
SK-MEL-28 melanoma = tested on: SK-MEL-28 melanoma
SK-MEL-5 melanoma = tested on: SK-MEL-5 melanoma
SK-OV-3 ovarian = tested on: SK-OV-3 ovarian
SN12C renal = tested on: SN12C renal
SNB-19 CNS = tested on: SNB-19 CNS
SNB-75 CNS = tested on: SNB-75 CNS
SW-620 colon = tested on: SW-620 colon
T-47D breast = tested on: T-47D breast
TK-10 renal = tested on: TK-10 renal
U251 CNS = tested on: U251 CNS
UACC-257 melanoma = tested on: UACC-257 melanoma
UACC-62 melanoma = tested on: UACC-62 melanoma
UO-31 renal = tested on: UO-31 renal
786-0 renal = tested on: 786-0 renal
SR leukemia = tested on: SR leukemia

Nc1ncc(-c2ccc3ncnc(Nc4ccc(F)c(Cl)c4)c3c2)cn1
1.42 µM: TGI (TK-10 renal)
9.69 µM: TGI (SK-MEL-5 melanoma)
4.47 µM: TGI (MALME-3M melanoma)
inactive: GI50 (A549 NSCLC) 1.95 µM | GI50 (BT-549 breast) 1.88 µM | GI50 (CCRF-CEM leukemia) 2.86 µM | GI50 (COLO 205 colon) 2.5 µM | GI50 (DU-145 prostate) 0.759 µM | GI50 (HCC-2998 colon) 22.2 µM | GI50 (HCT-116 colon) 1.89 µM | GI50 (HCT-15 colon) 2.54 µM | GI50 (HL-60(TB) leukemia) 10.6 µM | GI50 (HOP-62 NSCLC) 1.7 µM | GI50 (HOP-92 NSCLC) 1.03 µM | GI50 (HS 578T breast) 1.19 µM | GI50 (HT29 colon) 2.31 µM | GI50 (K-562 leukemia) 3.25 µM | GI50 (KM12 colon) 5.01 µM | GI50 (LOX IMVI melanoma) 2.35 µM | GI50 (M14 melanoma) 3.74 µM | GI50 (MALME-3M melanoma) 1.29 µM | GI50 (MCF7 breast) 1.49 µM | GI50 (MDA-MB-231 breast) 1.44 µM | GI50 (MDA-MB-435) 2.31 µM | GI50 (MOLT-4 leukemia) 2.24 µM | GI50 (NCI-H226 lung) 2.07 µM | GI50 (NCI-H23 lung) 2.81 µM | GI50 (NCI-H460 lung) 1.44 µM | GI50 (NCI-H522 lung) 1.7 µM | GI50 (NCI/ADR-RES ovarian) 3.8 µM | GI50 (OVCAR-3 ovarian) 1.2 µM | GI50 (OVCAR-4 ovarian) 1.32 µM | GI50 (OVCAR-5 ovarian) 1.02 µM | GI50 (OVCAR-8 ovarian) 2.96 µM | GI50 (PC-3 prostate) 2.48 µM | GI50 (RPMI-8226 leukemia) 2.15 µM | GI50 (RXF 393 renal) 0.932 µM | GI50 (SF-268 CNS) 2.48 µM | GI50 (SF-295 CNS) 2.11 µM | GI50 (SF-539 CNS) 1.52 µM | GI50 (SK-MEL-2 melanoma) 18.2 µM | GI50 (SK-MEL-28 melanoma) 3.08 µM | GI50 (SK-MEL-5 melanoma) 2.84 µM | GI50 (SK-OV-3 ovarian) 0.634 µM | GI50 (SN12C renal) 1.58 µM | GI50 (SNB-19 CNS) 3.53 µM | GI50 (SNB-75 CNS) 0.544 µM | GI50 (SW-620 colon) 3.02 µM | GI50 (T-47D breast) 0.703 µM | GI50 (U251 CNS) 1.72 µM | GI50 (UACC-257 melanoma) 13.4 µM | GI50 (UACC-62 melanoma) 4.99 µM | GI50 (UO-31 renal) 0.5 µM
4.67 µM: TGI (NCI-H226 lung)
2.96 µM: TGI (NCI-H460 lung)
3.8 µM: TGI (MDA-MB-231 breast)
2.97 µM: TGI (OVCAR-4 ovarian)
> 100 µM: TGI (CCRF-CEM leukemia) | TGI (DU-145 prostate) | TGI (HCC-2998 colon) | TGI (HCT-15 colon) | TGI (K-562 leukemia) | TGI (KM12 colon)
13.4 µM: TGI (MDA-MB-435)
9.33 µM: TGI (MOLT-4 leukemia)
3.96 µM: TGI (SK-OV-3 ovarian)
3.5 µM: TGI (RXF 393 renal)
2.57 µM: TGI (OVCAR-3 ovarian)
2.05 µM: TGI (ACHN renal)
39.3 µM: TGI (NCI-H23 lung)
17.5 µM: TGI (OVCAR-8 ovarian)
10.7 µM: TGI (LOX IMVI melanoma)
19.3 µM: TGI (HT29 colon)
8.25 µM: TGI (A549 NSCLC)
3.02 µM: TGI (UO-31 renal)
4.1 µM: TGI (SN12C renal)
31.7 µM: TGI (UACC-257 melanoma)
3.52 µM: TGI (HOP-92 NSCLC) | TGI (HS 578T breast)
8.27 µM: TGI (BT-549 breast)
4.02 µM: TGI (CAKI-1 renal)
2.43 µM: TGI (IGROV1 ovarian) | TGI (SNB-75 CNS)
11 µM: TGI (SF-295 CNS)
46.2 µM: TGI (NCI/ADR-RES ovarian)
7.51 µM: TGI (RPMI-8226 leukemia)
38 µM: TGI (EKVX NSCLC)
3.69 µM: TGI (OVCAR-5 ovarian)
4.45 µM: TGI (HOP-62 NSCLC)
8.92 µM: TGI (NCI-H522 lung)
68.5 µM: TGI (SF-268 CNS)
3.73 µM: TGI (HCT-116 colon)
53.6 µM: TGI (PC-3 prostate)
39.9 µM: TGI (SK-MEL-2 melanoma) | TGI (UACC-62 melanoma)
3.16 µM: TGI (T-47D breast)
active: GI50 (ACHN renal) 0.387 µM | GI50 (CAKI-1 renal) 0.367 µM | GI50 (EKVX NSCLC) 0.252 µM | GI50 (IGROV1 ovarian) 0.258 µM | GI50 (TK-10 renal) 0.132 µM
4.24 µM: TGI (U251 CNS)
2.93 µM: TGI (SF-539 CNS)
23.5 µM: TGI (SNB-19 CNS)
11.2 µM: TGI (COLO 205 colon)
11.7 µM: TGI (SW-620 colon)
17.6 µM: TGI (SK-MEL-28 melanoma)
29.7 µM: TGI (HL-60(TB) leukemia)
20.5 µM: TGI (MCF7 breast)
17.1 µM: TGI (M14 melanoma)

COC(=O)c1ccc2c(c1)C(=O)c1c-2n(CCCN=[N+]=[N-])c(=O)c2cc(OC)c(OC)cc12
> 100 µM: TGI (786-0 renal) | TGI (A549 NSCLC) | TGI (ACHN renal) | TGI (BT-549 breast) | TGI (CAKI-1 renal) | TGI (CCRF-CEM leukemia) | TGI (COLO 205 colon) | TGI (DU-145 prostate) | TGI (EKVX NSCLC) | TGI (HCC-2998 colon) | TGI (HCT-116 colon) | TGI (HCT-15 colon) | TGI (HL-60(TB) leukemia) | TGI (HOP-62 NSCLC) | TGI (HS 578T breast) | TGI (HT29 colon) | TGI (IGROV1 ovarian) | TGI (K-562 leukemia) | TGI (KM12 colon) | TGI (LOX IMVI melanoma) | TGI (M14 melanoma) | TGI (MALME-3M melanoma) | TGI (MCF7 breast) | TGI (MDA-MB-231 breast) | TGI (MDA-MB-435) | TGI (NCI-H226 lung) | TGI (NCI-H23 lung) | TGI (NCI-H460 lung) | TGI (NCI-H522 lung) | TGI (NCI/ADR-RES ovarian) | TGI (OVCAR-3 ovarian) | TGI (OVCAR-4 ovarian) | TGI (OVCAR-5 ovarian) | TGI (OVCAR-8 ovarian) | TGI (PC-3 prostate) | TGI (RPMI-8226 leukemia) | TGI (RXF 393 renal) | TGI (SF-268 CNS) | TGI (SF-295 CNS) | TGI (SF-539 CNS) | TGI (SK-MEL-2 melanoma) | TGI (SK-MEL-28 melanoma) | TGI (SK-MEL-5 melanoma) | TGI (SK-OV-3 ovarian) | TGI (SN12C renal) | TGI (SNB-19 CNS) | TGI (SNB-75 CNS) | TGI (SW-620 colon) | TGI (TK-10 renal) | TGI (U251 CNS) | TGI (UACC-257 melanoma) | TGI (UACC-62 melanoma) | TGI (UO-31 renal)
inactive: GI50 (786-0 renal) > 100 µM | GI50 (A549 NSCLC) > 100 µM | GI50 (ACHN renal) > 100 µM | GI50 (BT-549 breast) > 100 µM | GI50 (CAKI-1 renal) > 100 µM | GI50 (CCRF-CEM leukemia) > 100 µM | GI50 (COLO 205 colon) > 100 µM | GI50 (DU-145 prostate) > 100 µM | GI50 (EKVX NSCLC) > 100 µM | GI50 (HCC-2998 colon) > 100 µM | GI50 (HCT-116 colon) > 100 µM | GI50 (HCT-15 colon) > 100 µM | GI50 (HL-60(TB) leukemia) 91.9 µM | GI50 (HOP-62 NSCLC) > 100 µM | GI50 (HS 578T breast) > 100 µM | GI50 (HT29 colon) > 100 µM | GI50 (IGROV1 ovarian) > 100 µM | GI50 (K-562 leukemia) > 100 µM | GI50 (KM12 colon) > 100 µM | GI50 (LOX IMVI melanoma) > 100 µM | GI50 (M14 melanoma) > 100 µM | GI50 (MALME-3M melanoma) > 100 µM | GI50 (MCF7 breast) > 100 µM | GI50 (MDA-MB-231 breast) > 100 µM | GI50 (MDA-MB-435) > 100 µM | GI50 (MOLT-4 leukemia) 3.82 µM | GI50 (NCI-H226 lung) > 100 µM | GI50 (NCI-H23 lung) 15.6 µM | GI50 (NCI-H460 lung) > 100 µM | GI50 (NCI-H522 lung) > 100 µM | GI50 (NCI/ADR-RES ovarian) > 100 µM | GI50 (OVCAR-3 ovarian) > 100 µM | GI50 (OVCAR-4 ovarian) > 100 µM | GI50 (OVCAR-5 ovarian) > 100 µM | GI50 (OVCAR-8 ovarian) > 100 µM | GI50 (PC-3 prostate) > 100 µM | GI50 (RPMI-8226 leukemia) > 100 µM | GI50 (RXF 393 renal) > 100 µM | GI50 (SF-268 CNS) > 100 µM | GI50 (SF-295 CNS) > 100 µM | GI50 (SF-539 CNS) > 100 µM | GI50 (SK-MEL-2 melanoma) > 100 µM | GI50 (SK-MEL-28 melanoma) > 100 µM | GI50 (SK-MEL-5 melanoma) > 100 µM | GI50 (SK-OV-3 ovarian) 20.8 µM | GI50 (SN12C renal) > 100 µM | GI50 (SNB-19 CNS) > 100 µM | GI50 (SNB-75 CNS) 8.24 µM | GI50 (SR leukemia) 3.57 µM | GI50 (SW-620 colon) > 100 µM | GI50 (TK-10 renal) > 100 µM | GI50 (U251 CNS) > 100 µM | GI50 (UACC-257 melanoma) > 100 µM | GI50 (UACC-62 melanoma) > 100 µM | GI50 (UO-31 renal) > 100 µM
56 µM: TGI (SR leukemia)
19.1 µM: TGI (MOLT-4 leukemia)
